Experimental data taken from ChEMBL document CHEMBL1136876, “On the inhibition of HIV-1 protease by hydrazino-ureas displaying the N-->C=O interaction” (Bioorg Med Chem, 2009).

How the values were obtained:
Protease [1] = molecular target: T1, Protease (Human immunodeficiency virus 1, UniProt Q9YQ12); experiment: Inhibition of HIV1 protease by FRET assay
Protease [2] = molecular target: T1, Protease; experiment: Inhibition of HIV1 protease by Dixon method
Protease [3] = molecular target: T1, Protease; experiment: Inhibition of HIV1 protease by Hanes method
Protease [4] = molecular target: T1, Protease; experiment: Inhibition of HIV1 protease by Lineweaver-Burke method

T1 sequence (Q9YQ12 whole entry): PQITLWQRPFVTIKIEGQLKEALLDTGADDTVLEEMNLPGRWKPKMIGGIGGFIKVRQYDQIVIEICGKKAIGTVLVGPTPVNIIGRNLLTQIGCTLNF

Structure (SMILES) | IC50 (Protease [1]) | Ki (Protease [2]) | Ki (Protease [3]) | Ki (Protease [4])
C=CCOC(=O)N[C@]1(Cc2ccccc2)CC[N+]2(CCC[C@H]2C(=O)OC)C1[O-] (some centres undefined) | > 1000 µM | – | – | –
CC(C)[C@H](N)C(=O)N[C@]1(Cc2ccccc2)CC[N+]2(CCC[C@H]2C(=O)NC(=O)[C@@H](NC(C)(C)C)C(C)C)C1[O-] (some centres undefined) | 204 µM | 96 µM | 96 µM | 99 µM
O=C1N[C@@H](Cc2ccccc2)C([O-])[N+]2(CCCCC2)N1Cc1ccccc1 (some centres undefined) | 37.2 µM | 34.8 µM | 26.2 µM | 26.2 µM
O=C1N[C@H](Cc2ccccc2)C([O-])[N+]2(CCCCC2)N1Cc1ccccc1 (some centres undefined) | 543 µM | 454 µM | 461 µM | 461 µM
CC(C)(C)NC(=O)[C@@H]1CCC[N+]12C([O-])[C@H](Cc1ccccc1)NC(=O)N2Cc1ccccc1 (some centres undefined) | 44.5 µM | 43.9 µM | 34.3 µM | 34.3 µM
CC[C@H](C)[C@H](NC(=O)[C@@H](NC(C)(C)C)C(C)C)C(=O)NC(=O)[C@@H]1CCC[N+]12C([O-])[C@H](Cc1ccccc1)NC(=O)N2Cc1ccccc1 (some centres undefined) | 169 µM | 138 µM | 149 µM | 149 µM
CC(C)[C@H](N)C(=O)N[C@]1(Cc2ccccc2)CC[N+]2(CCC[C@H]2C(=O)NC(C)(C)C)C1[O-] (some centres undefined) | 545 µM | 577 µM | 618 µM | 574 µM
CC(C)[C@H](NC(C)(C)C)C(=O)NC(=O)[C@@H]1CCC[N+]12C([O-])[C@H](Cc1ccccc1)NC(=O)N2Cc1ccccc1 (some centres undefined) | 341 µM | 286 µM | 292 µM | 292 µM
